Earlier results as cited in patent US11791016B2, “Methods and systems for computer-generated predictive application of neuroimaging and gene expression mapping data” (NEUMORA THERAPEUTICS, INC., priority 2017, dated 2023).

Key:
[1] = target: 5-HT2A serotonin receptor (Homo sapiens, UniProt P28223); settings: healthy human subjects
[2] = target: T1, histamine H3 receptor (Homo sapiens, UniProt Q9Y5N1); settings: patients with schizophrenia
T1 construct: host or cells: patients with schizophrenia, in vivo (Egan et al. 2013)

[3] = target: muscarinic M3 (CHRM3) receptor (Homo sapiens, UniProt P20309)
[4] = target: 5HT6 receptors (Homo sapiens, UniProt P50406)
Sequence of 5HT6 receptors (P50406 whole entry): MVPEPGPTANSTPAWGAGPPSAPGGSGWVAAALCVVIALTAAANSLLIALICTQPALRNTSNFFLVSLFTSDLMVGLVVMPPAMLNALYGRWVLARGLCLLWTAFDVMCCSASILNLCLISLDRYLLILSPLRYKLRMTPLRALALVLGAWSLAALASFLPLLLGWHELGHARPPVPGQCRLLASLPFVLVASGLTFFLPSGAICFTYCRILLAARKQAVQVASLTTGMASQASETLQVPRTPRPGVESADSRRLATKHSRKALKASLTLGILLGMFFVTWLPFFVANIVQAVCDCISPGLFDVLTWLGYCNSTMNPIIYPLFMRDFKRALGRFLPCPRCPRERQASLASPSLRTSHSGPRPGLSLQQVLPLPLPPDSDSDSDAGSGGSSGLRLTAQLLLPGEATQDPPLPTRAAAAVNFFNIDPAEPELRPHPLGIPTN

Sequence of 5-HT2A serotonin receptor (P28223 whole entry): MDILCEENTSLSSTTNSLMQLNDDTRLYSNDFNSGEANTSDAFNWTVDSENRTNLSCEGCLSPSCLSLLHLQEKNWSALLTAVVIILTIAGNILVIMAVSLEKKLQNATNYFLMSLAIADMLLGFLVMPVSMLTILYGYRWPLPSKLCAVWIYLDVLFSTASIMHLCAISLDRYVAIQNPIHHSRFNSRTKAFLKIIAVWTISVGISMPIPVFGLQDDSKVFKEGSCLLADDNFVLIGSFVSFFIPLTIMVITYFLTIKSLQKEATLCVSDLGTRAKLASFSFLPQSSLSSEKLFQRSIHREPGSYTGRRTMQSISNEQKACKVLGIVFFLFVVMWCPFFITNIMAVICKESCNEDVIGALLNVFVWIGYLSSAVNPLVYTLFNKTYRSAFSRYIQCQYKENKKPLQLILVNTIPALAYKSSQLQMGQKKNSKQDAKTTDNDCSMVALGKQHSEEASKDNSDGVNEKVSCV
Sequence of muscarinic M3 (CHRM3) receptor (P20309 whole entry, species assumed): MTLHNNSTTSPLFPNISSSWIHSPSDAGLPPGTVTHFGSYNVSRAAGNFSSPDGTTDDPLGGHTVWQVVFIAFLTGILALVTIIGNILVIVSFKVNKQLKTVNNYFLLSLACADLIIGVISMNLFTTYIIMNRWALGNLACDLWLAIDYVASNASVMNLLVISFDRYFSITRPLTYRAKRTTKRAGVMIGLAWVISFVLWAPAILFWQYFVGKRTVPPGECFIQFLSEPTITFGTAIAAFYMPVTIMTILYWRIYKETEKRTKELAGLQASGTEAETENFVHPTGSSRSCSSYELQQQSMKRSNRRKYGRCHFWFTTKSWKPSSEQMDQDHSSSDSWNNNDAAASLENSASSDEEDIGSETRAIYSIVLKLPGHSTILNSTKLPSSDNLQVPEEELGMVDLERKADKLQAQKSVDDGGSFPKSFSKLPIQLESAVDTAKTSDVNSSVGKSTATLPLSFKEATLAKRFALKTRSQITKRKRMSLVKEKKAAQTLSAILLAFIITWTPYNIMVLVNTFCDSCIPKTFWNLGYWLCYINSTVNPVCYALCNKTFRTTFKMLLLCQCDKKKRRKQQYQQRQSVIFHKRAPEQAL
T1 sequence (Q9Y5N1 whole entry): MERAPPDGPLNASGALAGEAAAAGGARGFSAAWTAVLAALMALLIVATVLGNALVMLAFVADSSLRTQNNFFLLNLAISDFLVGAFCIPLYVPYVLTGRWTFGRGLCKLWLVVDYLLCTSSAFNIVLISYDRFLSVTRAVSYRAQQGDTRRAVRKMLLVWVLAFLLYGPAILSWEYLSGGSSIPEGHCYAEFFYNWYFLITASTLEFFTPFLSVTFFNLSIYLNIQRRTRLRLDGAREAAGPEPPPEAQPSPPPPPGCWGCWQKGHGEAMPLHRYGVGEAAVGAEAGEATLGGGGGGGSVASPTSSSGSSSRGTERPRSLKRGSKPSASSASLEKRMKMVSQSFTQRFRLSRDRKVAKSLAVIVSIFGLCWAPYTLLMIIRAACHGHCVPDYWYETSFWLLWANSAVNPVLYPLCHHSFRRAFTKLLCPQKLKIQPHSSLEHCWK

CCN(CC)C(=O)[C@@H]1C=C2c3cccc4[nH]cc(c34)C[C@H]2N(C)C1 [LSD, lysergic acid diethylamide]
change in mean functional connectivity (Global Brain Connectivity, GBC) ([1]; acute administration, fMRI-derived cortical map): large increase in occipital visual cortex

Cc1nc2cccc(C(F)(F)F)c2c(=O)n1-c1ccc(OCCCN2CCCC2)cc1 [MK-0249]
improvement of cognitive deficits [2]: failed to improve cognitive deficits

O=C1Nc2ccc(Cl)cc2[C@@](C#CC2CC2)(C(F)(F)F)O1 [efavirenz]
mode of action at muscarinic M3 (CHRM3) receptor [3]: antagonist activity | mode of action at 5HT6 receptors [4]: inverse agonist activity

O=C(c1ccc(F)cc1)C1CCN(CCn2c(=O)[nH]c3ccccc3c2=O)CC1 [ketanserin]
effect on LSD-induced neural change (GBC) ([1]; pre-administration before LSD): blocked | effect on behavioral effects of LSD ([1]; pre-administration before LSD): blocked
